Assay results taken from paper PMC8397297 (ACS Chemical Neuroscience, 2021).

Key:
mGAT1 [1] = biological target: T1, mGAT1 (Mus musculus, UniProt P31648); experiment: [3H]GABA uptake assay in HEK-293 cells stably expressing mGAT1; assay type: cell-based; settings: for IC50: [3H]GABA uptake, read-out: pIC50 ± SEM mGAT1 (converted); for remaining [3H]GABA uptake mGAT1: in the presence of 100 μM inhibitor
T1 construct: expressed in transfected cells; host or cells: HEK-293

mGAT2 = biological target: T2, mGAT2 (Mus musculus, UniProt P31651); experiment: [3H]GABA uptake assay in HEK-293 cells stably expressing mGAT2; assay type: cell-based; settings: for IC50: [3H]GABA uptake, read-out: pIC50 ± SEM mGAT2 (converted); for remaining [3H]GABA uptake mGAT2: in the presence of 100 μM inhibitor
T2 construct: expressed in transfected cells; host or cells: HEK-293
T2 sequence (P31651 1-614): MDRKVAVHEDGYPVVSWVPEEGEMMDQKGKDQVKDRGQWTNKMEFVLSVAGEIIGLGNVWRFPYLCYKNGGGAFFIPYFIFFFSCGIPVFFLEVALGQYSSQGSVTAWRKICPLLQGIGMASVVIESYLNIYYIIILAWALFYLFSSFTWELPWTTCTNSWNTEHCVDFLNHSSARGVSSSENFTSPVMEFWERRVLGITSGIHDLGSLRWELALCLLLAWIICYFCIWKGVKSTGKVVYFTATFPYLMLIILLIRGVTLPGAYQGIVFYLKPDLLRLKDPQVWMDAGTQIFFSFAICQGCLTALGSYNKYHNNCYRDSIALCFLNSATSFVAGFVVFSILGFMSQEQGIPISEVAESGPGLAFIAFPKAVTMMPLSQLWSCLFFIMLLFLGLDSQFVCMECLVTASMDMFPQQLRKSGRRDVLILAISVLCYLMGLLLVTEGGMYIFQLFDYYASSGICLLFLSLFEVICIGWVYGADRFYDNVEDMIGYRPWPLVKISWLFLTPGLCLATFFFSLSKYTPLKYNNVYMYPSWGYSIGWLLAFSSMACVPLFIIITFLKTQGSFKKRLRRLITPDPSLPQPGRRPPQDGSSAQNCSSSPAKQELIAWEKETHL

mGAT4 = biological target: T3, mGAT4 (Mus musculus, UniProt P31650); experiment: [3H]GABA uptake assay in HEK-293 cells stably expressing mGAT4; assay type: cell-based; settings: for IC50: [3H]GABA uptake, read-out: pIC50 ± SEM mGAT4 (converted); for remaining [3H]GABA uptake mGAT4: in the presence of 100 μM inhibitor
T3 construct: expressed in transfected cells; host or cells: HEK-293
T3 sequence (P31650 1-627): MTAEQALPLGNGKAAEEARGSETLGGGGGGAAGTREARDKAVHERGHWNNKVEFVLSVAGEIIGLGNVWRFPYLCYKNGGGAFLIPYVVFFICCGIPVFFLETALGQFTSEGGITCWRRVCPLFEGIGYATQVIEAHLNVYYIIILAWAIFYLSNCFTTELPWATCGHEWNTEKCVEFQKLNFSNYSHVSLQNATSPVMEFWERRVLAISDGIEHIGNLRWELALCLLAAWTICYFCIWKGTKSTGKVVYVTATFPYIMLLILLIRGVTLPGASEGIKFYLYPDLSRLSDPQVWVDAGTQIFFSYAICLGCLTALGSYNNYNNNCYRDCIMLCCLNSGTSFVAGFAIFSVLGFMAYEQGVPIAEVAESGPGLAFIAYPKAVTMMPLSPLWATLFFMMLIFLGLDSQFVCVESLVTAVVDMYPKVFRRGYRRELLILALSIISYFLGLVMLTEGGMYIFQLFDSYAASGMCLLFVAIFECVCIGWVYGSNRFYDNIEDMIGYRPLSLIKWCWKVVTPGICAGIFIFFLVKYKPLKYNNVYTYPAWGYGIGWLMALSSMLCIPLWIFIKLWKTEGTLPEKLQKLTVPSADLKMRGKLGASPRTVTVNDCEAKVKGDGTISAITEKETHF

mGAT3 = biological target: T4, mGAT3 (Mus musculus, UniProt P31649); experiment: [3H]GABA uptake assay in HEK-293 cells stably expressing mGAT3; assay type: cell-based; settings: for IC50: [3H]GABA uptake, read-out: pIC50 ± SEM mGAT3 (converted); for remaining [3H]GABA uptake mGAT3: in the presence of 100 μM inhibitor
T4 construct: expressed in transfected cells; host or cells: HEK-293
T4 sequence (P31649 1-602): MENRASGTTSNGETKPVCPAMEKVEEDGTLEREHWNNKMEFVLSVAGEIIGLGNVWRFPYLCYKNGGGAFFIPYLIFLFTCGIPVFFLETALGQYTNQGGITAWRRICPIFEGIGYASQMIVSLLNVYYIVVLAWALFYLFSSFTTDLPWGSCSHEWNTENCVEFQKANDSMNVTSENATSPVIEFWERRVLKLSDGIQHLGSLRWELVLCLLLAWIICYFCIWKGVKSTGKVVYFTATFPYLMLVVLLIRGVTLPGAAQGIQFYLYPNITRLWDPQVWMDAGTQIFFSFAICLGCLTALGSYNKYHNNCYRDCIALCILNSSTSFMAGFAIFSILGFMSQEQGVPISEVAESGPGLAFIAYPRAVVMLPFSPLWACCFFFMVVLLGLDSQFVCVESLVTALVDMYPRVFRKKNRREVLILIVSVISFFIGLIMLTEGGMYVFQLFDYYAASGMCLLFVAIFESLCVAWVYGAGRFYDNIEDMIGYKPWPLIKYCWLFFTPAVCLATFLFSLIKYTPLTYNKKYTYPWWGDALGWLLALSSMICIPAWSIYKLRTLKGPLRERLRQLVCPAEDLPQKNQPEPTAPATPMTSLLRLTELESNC

mGAT1 [2] = biological target: T1, mGAT1; experiment: competitive MS binding assay with NO711 as unlabeled marker (LC-ESI-MS/MS); settings: for remaining NO711 binding mGAT1: in the presence of 100 μM inhibitor
Method: Specific binding affinity toward mGAT1 was determined via a competitive mass spectrometry (MS) binding assay quantified by liquid chromatography–electrospray ionization tandem mass spectrometry (LC–ESI-MS/MS) with NO711 as an unlabeled marker.[50]
MS binding assays for mGAT1 were performed as described earlier.[50] Inhibition of mGAT1 binding by the synthesized compounds was determined in MS binding assays at a screening concentration of 100 μM and analyzed by LC–ESI-MS/MS.

SMILES | IC50 (mGAT1 [1]) | IC50 (mGAT2) | IC50 (mGAT4) | IC50 (mGAT3) | Ki (mGAT1 [2]; MS binding assay, read-out: pKi ± SEM mGAT1 (converted)) | remaining [3H]GABA uptake mGAT1 (mGAT1 [1]) | remaining NO711 binding mGAT1 (mGAT1 [2]) | remaining [3H]GABA uptake mGAT2 (mGAT2) | remaining [3H]GABA uptake mGAT4 (mGAT4) | remaining [3H]GABA uptake mGAT3 (mGAT3)
Cc1ccc(CNC(=O)C(CO)N(C)CCC=C2c3ccccc3C=Cc3ccccc32)cc1 (centres unmarked) [Compound 55e, 2-((3-(5H-Dibenzo[a,d][7]annulen-5-ylidene)propyl)(methyl)amino)-N-(4-methylbenzyl)-3-hydroxypropanamide] | 26.9 µM | 21.4 µM | 13.2 µM | 15.8 µM | 29.5 µM | – | – | – | – | –
O=C(NCc1ccccc1)C(CO)N1CCC(=C2c3ccccc3-c3ccccc32)CC1 (centres unmarked) [Compound 57, N-Benzyl-2-[4-(9H-fluoren-9-ylidene)piperidin-1-yl]-3-hydroxypropanamide] | 24.5 µM | 17.8 µM | 36.3 µM | 69.2 µM | – | – | 100 μM: 84% | – | – | –
O=C(NCc1ccccc1)C(CO)N1CCC(=C2c3ccccc3CCc3ccccc32)CC1 (centres unmarked) [Compound 58, N-Benzyl-2-(4-(10,11-dihydro-5H-dibenzo[a,d][7]annulen-5-ylidene)piperidin-1-yl)-3-hydroxypropanamide] | 35.5 µM | 22.4 µM | 23.4 µM | 20.9 µM | – | – | 100 μM: 83% | – | – | –
CC(C(=O)NCc1ccccc1)N(C)CCON=C(c1ccccc1)c1ccccc1 (centres unmarked) [Compound 65, N-Benzyl-2-((2-(((diphenylmethylene)amino)oxy)ethyl)(methyl)amino)propanamide] | 58.9 µM | 26.3 µM | 26.3 µM | 13.8 µM | – | – | 100 μM: 104% | – | – | –
Cc1ccsc1C(=CCCN(C)C(C)C(=O)NCc1ccccc1)c1sccc1C (centres unmarked) [Compound 67, N-Benzyl-2-((4,4-bis(3-methylthiophen-2-yl)but-3-en-1-yl)(methyl)amino)propanamide] | 24.5 µM | 13.2 µM | 12 µM | 13.5 µM | – | – | 100 μM: 83% | – | – | –
CCC(C(=O)NCc1ccccc1)N(C)CCC=C(c1sccc1C)c1sccc1C (centres unmarked) [Compound 68, N-Benzyl-2-((4,4-bis(3-methylthiophen-2-yl)but-3-en-1-yl)(methyl)amino)butanamide] | 26.9 µM | 39.8 µM | 12.9 µM | 30.9 µM | – | – | 100 μM: 81% | – | – | –

More lines, now with the values ahead:

IC50 (mGAT1 [1]) | IC50 (mGAT2) | IC50 (mGAT4) | IC50 (mGAT3) | Ki (mGAT1 [2]; MS binding assay, read-out: pKi ± SEM mGAT1 (converted)) | remaining [3H]GABA uptake mGAT1 (mGAT1 [1]) | remaining NO711 binding mGAT1 (mGAT1 [2]) | remaining [3H]GABA uptake mGAT2 (mGAT2) | remaining [3H]GABA uptake mGAT4 (mGAT4) | remaining [3H]GABA uptake mGAT3 (mGAT3) | SMILES
– | 25.7 µM | 27.5 µM | 10.5 µM | – | 100 μM: 50% | 100 μM: 86% | – | – | – | CN(CCC=C1c2ccccc2CCc2ccccc21)C(CO)C(=O)NCc1ccccc1Cl (centres unmarked) [Compound 56b, N-(2-Chlorobenzyl)-2-((3-(10.11-dihydro-5H-dibenzo[a,d][7]annulen-5-ylidene)propyl)(methyl)amino)-3-hydroxypropanamide]
61.7 µM | 29.5 µM | 10.2 µM | 14.5 µM | – | – | 100 μM: 87% | – | – | – | CN(CCC=C1c2ccccc2CCc2ccccc21)C(CO)C(=O)NCc1ccc(Cl)cc1 (centres unmarked) [Compound 56c, N-(4-Chlorobenzyl)-2-((3-(10,11-dihydro-5H-dibenzo[a,d][7]annulen-5-ylidene)propyl)(methyl)amino)-3-hydroxypropanamide]
17.8 µM | 21.4 µM | 12.3 µM | 12.9 µM | – | – | 100 μM: 96% | – | – | – | CN(CCC=C1c2ccccc2CCc2ccccc21)C(CO)C(=O)NCc1ccc(F)cc1 (centres unmarked) [Compound 56d, N-(4-Fluorobenzyl)-2-((3-(10,11-dihydro-5H-dibenzo[a,d][7]annulen-5-ylidene)propyl)(methyl)amino)-3-hydroxypropanamide]
22.9 µM | 22.9 µM | 26.9 µM | 58.9 µM | – | – | 100 μM: 80% | – | – | – | CN(CCON=C(c1ccccc1)c1ccccc1)C(CO)C(=O)NCc1ccccc1 (centres unmarked) [Compound 59a, N-Benzyl-2-((2-(((diphenylmethylene)amino)oxy)ethyl)(methyl)amino)-3-hydroxypropanamide]
44.7 µM | 12.9 µM | 12.9 µM | 15.8 µM | – | – | 100 μM: 92% | – | – | – | CN(CCON=C(c1ccccc1)c1ccccc1)C(CO)C(=O)NCc1ccccc1Cl (centres unmarked) [Compound 59b]
26.3 µM | 17 µM | 16.6 µM | 19.5 µM | – | – | 100 μM: 84% | – | – | – | CN(CCON=C(c1ccccc1)c1ccccc1)C(CO)C(=O)NCc1ccc(F)cc1 (centres unmarked) [Compound 59c, 2-((2-(((Diphenylmethylene)amino)oxy)ethyl)(methyl)amino)-N-(4-fluorobenzyl)-3-hydroxypropanamide]
7.08 µM | – | – | – | – | – | 100 μM: 81% | 100 μM: 108% | 100 μM: 77% | 100 μM: 69% | CCC(C(=O)NCc1ccccc1)N1CCC(=C(c2sccc2C)c2sccc2C)CC1 (centres unmarked) [Compound 64a, N-Benzyl-2-(4-(bis(3-methylthiophen-2-yl)methylene)piperidin-1-yl)butanamide]
– | – | – | – | – | 100 μM: 66% | 100 μM: 108% | 100 μM: 101% | 100 μM: 64% | 100 μM: 61% | CCC(C(=O)NCc1ccccc1Cl)N1CCC(=C(c2sccc2C)c2sccc2C)CC1 (centres unmarked) [Compound 64b, 2-(4-(Bis(3-methylthiophen-2-yl)methylene)piperidin-1-yl)-N-(2-chlorobenzyl)butanamide]
– | – | 13.8 µM | 16.6 µM | – | 100 μM: 50% | 100 μM: 104% | 100 μM: 55% | – | – | CCC(C(=O)NCc1ccccc1)N(C)CCON=C(c1ccccc1)c1ccccc1 (centres unmarked) [Compound 66a, N-Benzyl-2-((2-(((diphenylmethylene)amino)oxy)ethyl)(methyl)amino)butanamide]
– | – | – | 45.7 µM | – | 100 μM: 69% | 100 μM: 107% | 100 μM: 59% | 100 μM: 50% | – | CCC(C(=O)NCc1ccccc1Cl)N(C)CCON=C(c1ccccc1)c1ccccc1 (centres unmarked) [Compound 66b, N-(2-Chlorobenzyl)-2-((2-(((diphenylmethylene)amino)oxy)ethyl)(methyl)amino)butanamide]
